A melting point compilation (Tetko et al.; mined from patent text by program, amines drawn as free bases though some values may be those of a salt)

Row | SMILES | melting point
1 | COc1cc(Nc2nccc(C(C)(C)C)n2)cc(OC)c1OC | 122 °C
2 | CON(Cc1ccc(F)cc1Cl)C(=O)C1=C(O)C(=O)N(C)C1 | 152 to 155 °C
3 | C[C@@H](n1ncn(-c2ccc(-n3nccn3)cc2)c1=O)[C@](O)(Cn1cncn1)c1ccc(F)cc1F | 213 to 215 °C
4 | Cc1cc(C)nc(N(C(=O)C(Cl)(Cl)Cl)c2ccccc2)n1 | 126 to 127 °C
5 | CCCCC(=O)Nc1ccc(C(F)(F)F)c(-n2nc(CCCC)n(Cc3ccc(-c4ccccc4S(=O)(=O)NC(=O)c4ccccc4Cl)cc3F)c2=O)c1 | 145 to 147 °C
6 | O=C1CCC(O)(c2ccc(Cl)c(Cl)c2)CN1Cc1ccccc1 (stereo not drawn) | 128 °C
7 | OCCC#Cc1ccc(-c2ccc(F)cc2)cc1 | 134 °C
8 | CCCCC(CC)Nc1cc(C)nc(Cl)c1N (stereo not drawn) | 139 to 140 °C
9 | COC(=O)CCCCNC(=O)C(CS)Cc1ccccc1 (stereo not drawn) | 39 to 41 °C
10 | Cc1ccc(S(=O)(=O)OCCC2(OC3CCCCO3)CC2)cc1 (stereo not drawn) | 56 to 57 °C
11 | Cc1cc(-c2c(Cl)c(=O)c2=O)c2c(C)ccc(C(C)C)cc1-2 | 138 to 139 °C
12 | C/C=C(/c1ccc(C(=O)O)cc1)c1ccc2c(c1)C(C)(C)CCC2(C)C | 212 °C
13 | COC(=O)c1ccc(Cc2cc3cc(C(F)(F)F)ccc3n2S(=O)(=O)c2ccc(C(C)C)cc2)cc1F | 132 °C
14 | O=C(c1cccs1)c1cnn2c(-c3cccc(NCc4ccccc4)c3)ccnc12 | 90 to 92 °C
15 | N#CCCNC(=O)c1cccc(-c2cccc(Oc3cccc(Cl)c3)n2)c1 | 139 to 140 °C
16 | O=[N+]([O-])c1ccccc1C1=NCC(=S)Nc2sc(Cl)cc21 | 213 to 215 °C
17 | CCCCCCCSc1nn2c(=O)c(C)c(O)nc2s1 | 141 to 143 °C
18 | COc1cc(CNC(C)=O)c(Cl)cc1O | > 300 °C
19 | Cn1cc(C2=C(c3c4n(c5ccccc35)C[C@@H]3CN(C(=O)OC(C)(C)C)C[C@@H]3C4)C(=O)NC2=O)c2ccccc21 (relative stereo) | 173 to 175 °C

Row | SMILES | melting point
20 | COC(=O)C1=C(C)NC(C#N)=C(C(=O)OC)C1c1ccccc1[N+](=O)[O-] (stereo not drawn) | 170 to 172 °C
21 | CCOC(=O)C1=C(COCCCc2nc3ccccc3n2C)NC(C)=C(C(=O)NC(C)(C)C)C1c1ccccc1Cl (stereo not drawn) | 202 °C
22 | CCOc1nn(-c2ccc(C(F)(F)F)cn2)cc1CCCOc1nn(CC)cc1CC(=O)O | 108 to 109 °C
23 | O=C(CC1CCCC1)NC[C@H]1CN(c2ccc3c(c2)CCCc2cn[nH]c2-3)C(=O)O1 | 205 to 208 °C
24 | CCCCCCC1(CCCCCC)c2cc(C#N)ccc2-c2ccc(C#N)cc21 | 116 to 118 °C
25 | COc1cc(C=CC(=O)CC(=O)C(F)(F)F)ccc1O | 97 to 100 °C
26 | CC(C)(C)OC(=O)C=Cc1ccc2c(c1)OCO2 | 82 to 83 °C
27 | Cc1c[nH]c(-c2ccccc2)c1-c1ccccc1 | 163 to 164 °C
28 | N#Cc1ccc(C(=O)N2CCc3c([nH]c4ccccc34)C2)cc1 | 228 to 232 °C
29 | CCCCc1ccc(OC)c(-c2csc(NC(=O)c3ccc(C(=O)N4CCC(N5CCC(OC(C)=O)C5)CC4)cc3)n2)c1 (stereo not drawn) | 99 °C
30 | [N-]=[N+]=N[C@@H](Cc1ccccc1)[C@H](O)CO | 83 to 84 °C
31 | CC1(C)CC(=O)C2=C(C1)NC1=C(C(=O)CC(C)(C)C1)C2c1cc(Br)cc(Br)c1 | 288 to 290 °C
32 | OCc1cnc2n1-c1ccc(Cl)cc1C(c1ccccc1)=NC2 | 210 to 213 °C
33 | CC(C)(C)C(=O)C(C(O)C(Cl)(Cl)Cl)n1cncn1 (stereo not drawn) | 220 to 222 °C
34 | O=C(O)CCc1nc(-c2ccccc2)cs1 | 72 to 73 °C
35 | COc1cccc(OC)c1-c1ccc(C[C@H](NC(=O)c2c(Cl)ccc(Br)c2Cl)C(=O)O)cc1 | 235 °C
36 | Cc1ccc2nc(NC(=N)N)[nH]c2c1C | 122 to 124 °C
37 | COc1ccccc1-c1cc(F)cc2c1NC(CN)CO2 (stereo not drawn) | 84 °C
38 | CN1CCN(c2nc(-c3ccccc3Cl)c3cc([N+](=O)[O-])ccc3n2)CC1 | 204 °C
